We go through 21 molecules from patent publication US8791123B2, “Substituted pyrazolo[1,5-a]pyrimidine compounds as Trk kinase inhibitors” (Array Biopharma, Inc., priority 2009, dated 2014).

Assay [1] has as its target Human Jak2 kinase domain (Homo sapiens (Human), UniProt O60674). Nature of the assay: Jak2 Inhibition Assay (Omnia kinase assay). The assay is classed as biochemical. Conditions: Table 1; for IC50: 500 μM ATP, >1000 nM when >50% inhibition not observed at 1000 nM, read-out: Jak2 Enzyme IC50; for Jak2 Enzyme (% inhibition at 1000 nM): 1000 nM test compound. The method, then:
The assays described in Examples C, D, E and F for the determination of JAK1, JAK2, JAK3 and Tyk2 kinase activity, respectively, utilized the Omnia® Kinase fluorescence peptide substrate-based technology (Invitrogen). […] The reactions were therefore read at excitation 360 nm and emission was measured at 485 nm every 50 seconds for 45 minutes using a PerkinElmer EnVision Multilabel Plate Reader.
The final buffer conditions for each of the JAK1, JAK2, JAK3 and Tyk2 assays were as follows: 25 mM HEPES, pH 7.4, 10 mM MgCl2, 0.01% Triton X-100 and 1 mM DTT.
Two-μL aliquots of these were transferred to a fresh plate for a ten-fold intermediate dilution with assay buffer. Five-μL aliquots of the diluted compounds were then transferred to 20-μL of assay mixtures described in Examples C, D, E and F for a final concentration of DMSO of 2%. […] For each plate, percent of control (POC) values were calculated for each well according to the following equation:
[formula] • where • Xmax=Average Uninhibited Controls • Xmin=Average Background IC50's were estimated from the POC's using a standard 4-parameter logistic model:
[formula] • where • A=Minimum Y (Bottom Asymptote) • B=Maximum Y (Top Asymptote) • C=EC50 • D=Slope Factor • X=Compound Concentration (nM) • Y=POC
The IC50 is defined as the concentration of inhibitor at which the POC equals 50 for the fitted curve.
Compounds of Formula I were screened for their ability to inhibit Jak2 using the general enzyme inhibition assay method, in which the assay mixture contained 500 μM ATP, 10 μM Omnia® Y7 peptide (Catalog # IVGN KNZ3071C, Invitrogen Corporation, Carlsbad, Calif.) and 4 nM Jak2 in a total volume of 20 μL. Human Jak2 kinase domain comprising amino acids 808-1132 was purchased from Invitrogen Corporation, Carlsbad, Calif. (catalog # IVGN PV4210).

The target of assay [2] is TrkA (histidine-tagged recombinant human TrkA, cytoplasmic domain) (Homo sapiens (Human), UniProt P04629). Nature of the assay: TrkA ELISA Assay. Type of assay: biochemical. Conditions: Table 1; ELISA, 500 μM ATP; read-out: TrkA Enzyme IC50. Here is the method: An enzyme-linked immunosorbant assay (ELISA) was used to assess TrkA kinase activity in the presence of inhibitors. Immulon 4HBX 384-well microtiter plates (Thermo part #8755) were coated with a 0.025 mg/mL solution of poly (Glu, Ala, Tyr; 6:3:1; Sigma P3899). […] The reaction mixture was removed from the plate by washing with PBS containing 0.1% (v/v) Tween 20. The phosphorylated reaction product was detected using 0.2 μg/mL of a phosphotyrosine specific monoclonal antibody (clone PY20) conjugated to horseradish peroxidase in conjunction with the TMB Peroxidase Substrate System (KPL). After the addition of 1M phosphoric acid, the chromogenic substrate color intensity was quantitated via absorbance at 450 nm.
A general note: An ELISA detects its analyte on a solid surface through an enzyme-linked reagent.

Chain of Human Jak2 kinase domain (O60674 808-1132): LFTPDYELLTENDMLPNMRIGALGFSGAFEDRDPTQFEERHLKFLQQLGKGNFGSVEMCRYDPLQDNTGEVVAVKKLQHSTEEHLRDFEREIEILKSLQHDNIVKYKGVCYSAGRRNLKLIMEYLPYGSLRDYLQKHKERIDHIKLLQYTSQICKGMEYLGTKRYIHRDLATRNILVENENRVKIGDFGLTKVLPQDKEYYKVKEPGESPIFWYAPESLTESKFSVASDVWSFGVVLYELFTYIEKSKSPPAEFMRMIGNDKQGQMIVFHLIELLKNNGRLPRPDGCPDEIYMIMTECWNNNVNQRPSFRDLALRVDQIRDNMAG
Chain of TrkA (histidine-tagged recombinant human TrkA, cytoplasmic domain) (P04629 440-796): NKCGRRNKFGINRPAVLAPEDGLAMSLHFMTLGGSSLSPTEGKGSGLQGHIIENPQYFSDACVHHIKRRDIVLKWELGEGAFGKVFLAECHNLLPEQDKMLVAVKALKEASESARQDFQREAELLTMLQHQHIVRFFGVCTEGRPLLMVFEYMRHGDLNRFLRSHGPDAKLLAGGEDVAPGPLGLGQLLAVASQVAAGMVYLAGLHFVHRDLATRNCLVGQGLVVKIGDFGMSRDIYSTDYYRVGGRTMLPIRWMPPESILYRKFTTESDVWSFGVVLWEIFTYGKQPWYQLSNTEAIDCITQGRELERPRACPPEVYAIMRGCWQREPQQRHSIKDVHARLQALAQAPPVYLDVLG

The IC50 is the concentration at which inhibition is half-maximal. On to `CC1(O)CN(C(=O)c2cnn3ccc(N4CCC[C@@H]4c4cc(F)ccc4F)nc23)C1` [Example 32, (R)-(5-(2-(2,5-difluorophenyl)pyrrolidin-1-yl)pyrazolo[1,5-a]pyrimidin-3-yl)(3-hydroxy-3-methylazetidin-1-yl)methanone], for which the results for the IC50 in assay [1] and in assay [2] were above 1000 nM and 5.3 nM, respectively.

Take `NC(=O)c1cnn2ccc(N3CCC[C@@H]3c3cc(F)cc(OCCN4CCOCC4)c3)nc12` [Example 76, (R)-5-(2-(3-fluoro-5-(2-morpholinoethoxy)phenyl)pyrrolidin-1-yl)pyrazolo[1,5-a]pyrimidine-3-carboxamide]: the half-maximal inhibitory concentration (IC50) is above 1000 nM in assay [1] and 90 nM in assay [2].

For the molecule `CN1CCN(CCNC(=O)c2cnn3ccc(N4CCC[C@@H]4c4cc(F)ccc4F)nc23)CC1` [Example 171, 5-((R)-2-(2,5-difluorophenyl)pyrrolidin-1-yl)-N-(2-(4-methylpiperazin-1-yl)ethyl)pyrazolo[1,5-a]pyrimidine-3-carboxamide], the IC50 in assay [1] was above 1000 nM; in assay [2], 4.7 nM.

For `O=C(NC[C@H](O)CO)c1cnn2ccc(N3CCC[C@@H]3c3cc(F)ccc3F)nc12` [Example 29, 5-((R)-2-(2,5-difluorophenyl)pyrrolidin-1-yl)-N—((S)-2,3-dihydroxypropyl)pyrazolo[1,5-a]pyrimidine-3-carboxamide], the IC50 in assay [1] is above 1000 nM; in assay [2] it was 1.3 nM.

As for `CC1(C)OCC(COc2ccc(F)cc2[C@H]2CCCN2c2ccn3ncc(C(N)=O)c3n2)O1` (stereo partly drawn) [Example 205, 5-((2R)-2-(2-((2,2-dimethyl-1,3-dioxolan-4-yl)methoxy)-5-fluorophenyl)pyrrolidin-1-yl)pyrazolo[1,5-a]pyrimidine-3-carboxamide], the IC50 in assay [1] is above 1000 nM; in assay [2], 14.3 nM.

Regarding `CNC(=O)c1cnn2ccc(N3C[C@H](O)C[C@@H]3c3cccc(F)c3)nc12` [Example 43, 5-((2R,4R)-2-(3-fluorophenyl)-4-hydroxypyrrolidin-1-yl)-N-methylpyrazolo[1,5-a]pyrimidine-3-carboxamide], the IC50 in assay [1] was above 1000 nM; in assay [2] it was 139 nM.

As to `COCCOc1cc(F)cc([C@H]2CCCN2c2ccn3ncc(C(=O)NC4CC4)c3n2)c1` [Example 77, (R)—N-cyclopropyl-5-(2-(3-fluoro-5-(2-methoxyethoxy)phenyl)pyrrolidin-1-yl)pyrazolo[1,5-a]pyrimidine-3-carboxamide], the IC50 in assay [1] is above 1000 nM; in assay [2], 5.37 nM.

On to `CC(C)NC(=O)c1cnn2ccc(N3C[C@@H](O)C[C@@H]3c3cccc(F)c3)nc12` [Example 217, 5-((2R,4S)-2-(3-fluorophenyl)-4-hydroxypyrrolidin-1-yl)-N-isopropylpyrazolo[1,5-a]pyrimidine-3-carboxamide], for which the IC50 came to 551 nM in assay [1] and 5.8 nM in assay [2].

As for `O=C(c1cnn2ccc(N3CCC[C@@H]3c3cncc(F)c3)nc12)N1CC[C@H](O)C1` [Example 128, (5-((R)-2-(5-fluoropyridin-3-yl)pyrrolidin-1-yl)pyrazolo[1,5-a]pyrimidin-3-yl)((S)-3-hydroxypyrrolidin-1-yl)methanone], the IC50 in assay [1] was above 1000 nM; in assay [2], 2600 nM.

In the case of `CC(C)NC(=O)c1cnn2ccc(N3[C@@H](c4cncc(F)c4)CC[C@@]3(C)CO)nc12` [Example 219, 5-((2S,5R)-5-(5-fluoropyridin-3-yl)-2-(hydroxymethyl)-2-methylpyrrolidin-1-yl)-N-isopropylpyrazolo[1,5-a]pyrimidine-3-carboxamide], the values for the 50% inhibitory concentration (IC50) in assay [1] and in assay [2] were above 1000 nM and 188 nM, respectively.

As for `O=C(NC[C@@H](O)CO)c1cnn2ccc(N3CCC[C@@H]3c3cc(F)ccc3F)nc12` [Example 26, 5-((R)-2-(2,5-difluorophenyl)pyrrolidin-1-yl)-N—((R)-2,3-dihydroxypropyl)pyrazolo[1,5-a]pyrimidine-3-carboxamide], the IC50 in assay [1] is above 1000 nM; in assay [2], 1.3 nM.

`O=C(NC1CCC[C@@H]1O)c1cnn2ccc(N3CCCC3c3cncc(F)c3)nc12` (stereo partly drawn) [Example 120, 5-((R)-2-(5-fluoropyridin-3-yl)pyrrolidin-1-yl)-N-((trans)-2-hydroxycyclopentyl)pyrazolo[1,5-a]pyrimidine-3-carboxamide]: the IC50 is above 1000 nM in assay [1] and 22.8 nM in assay [2].

Regarding `Cn1cc(F)cc([C@H]2CCCN2c2ccn3ncc(C(=O)Nc4cccnc4)c3n2)c1=O` [Example 231, (R)-5-(2-(5-fluoro-1-methyl-2-oxo-1,2-dihydropyridin-3-yl)pyrrolidin-1-yl)-N-(pyridin-3-yl)pyrazolo[1,5-a]pyrimidine-3-carboxamide], the IC50 in assay [1] was above 1000 nM; in assay [2], 8.7 nM.

With `CN(C)C(=O)c1cnn2ccc(N3CCC[C@@H]3c3cc(F)ccc3F)nc12` [Example 27, (R)-5-(2-(2,5-difluorophenyl)pyrrolidin-1-yl)-N,N-dimethylpyrazolo[1,5-a]pyrimidine-3-carboxamide], the IC50 was above 1000 nM in assay [1] and 214 nM in assay [2].

`COc1ncc(F)cc1[C@H]1CCCN1c1ccn2ncc(C(=O)Nc3cc(C4CC4)n[nH]3)c2n1` [Example 242, (R)-N-(3-cyclopropyl-1H-pyrazol-5-yl)-5-(2-(5-fluoro-2-methoxypyridin-3-yl)pyrrolidin-1-yl)pyrazolo[1,5-a]pyrimidine-3-carboxamide]: the IC50 in assay [2] turned out to be 8.9 nM.

With `Cc1ncc(F)cc1[C@H]1CCCN1c1ccn2ncc(C(=O)N[C@H]3CC[C@@H](O)CC3)c2n1` [Example 195, 5-((R)-2-(5-fluoro-2-methylpyridin-3-yl)pyrrolidin-1-yl)-N-((cis)-4-hydroxycyclohexyl)pyrazolo[1,5-a]pyrimidine-3-carboxamide], the “Jak2 Enzyme (% inhibition at 1000 nM)” value in assay [1] is on record as “(16.2) %”.

With `O=C(NCCN1CCC(O)CC1)c1cnn2ccc(N3CCC[C@@H]3c3cc(F)ccc3F)nc12` [Example 170, 5-((R)-2-(2,5-difluorophenyl)pyrrolidin-1-yl)-N-(2-(4-hydroxypiperidin-1-yl)ethyl)pyrazolo[1,5-a]pyrimidine-3-carboxamide], the IC50 in assay [1] is above 1000 nM.

Regarding `COc1ncc(F)cc1[C@H]1CCCN1c1ccn2ncc(C(=O)Nc3cc(C)n[nH]3)c2n1` [Example 240, (R)-5-(2-(5-fluoro-2-methoxypyridin-3-yl)pyrrolidin-1-yl)-N-(3-methyl-1H-pyrazol-5-yl)pyrazolo[1,5-a]pyrimidine-3-carboxamide], the concentration for half-maximal inhibition (IC50) in assay [2] worked out at 11.3 nM.

For `COc1ncc(F)cc1[C@H]1CCCN1c1ccn2ncc(C(=O)Nc3ccn(C(C)C)n3)c2n1` [Example 244, (R)-5-(2-(5-fluoro-2-methoxypyridin-3-yl)pyrrolidin-1-yl)-N-(1-isopropyl-1H-pyrazol-3-yl)pyrazolo[1,5-a]pyrimidine-3-carboxamide], the IC50 in assay [2] is 38.2 nM.

Consider `O=C(N[C@H]1CC[C@@H](O)CC1)c1cnn2ccc(N3CCC[C@@H]3c3cncc(F)c3)nc12` [Example 100, 5-((R)-2-(5-fluoropyridin-3-yl)pyrrolidin-1-yl)-N-((cis)-4-hydroxycyclohexyl)pyrazolo[1,5-a]pyrimidine-3-carboxamide], for which the “Jak2 Enzyme (% inhibition at 1000 nM)” value in assay [1] is given as “(13.8) %”.

Take `COc1ncc(F)cc1[C@H]1CCCN1c1ccn2ncc(C(=O)Nc3ccn(C)n3)c2n1` [Example 241, (R)-5-(2-(5-fluoro-2-methoxypyridin-3-yl)pyrrolidin-1-yl)-N-(1-methyl-1H-pyrazol-3-yl)pyrazolo[1,5-a]pyrimidine-3-carboxamide]: the IC50 in assay [2] stood at 21.8 nM.
